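These data come from cells grown in 96-well plates and exposed to compound for 48 hours at five concentrations. GI50 marks 50% less growth.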 Activity calls are given as the source filed them. Cut-off read from the data, not from the text of the source: active = GI50 up to about 1.1 µM and inactive = higher.
What was measured:
Assay in all cases: inhibition of tumour cell growth, NCI panel, 48 h
786-0 = test system: 786-0
A498 = test system: A498
A549 = test system: A549
ACHN = test system: ACHN
BT-549 = test system: BT-549
CAKI-1 = test system: CAKI-1
CCRF-CEM = test system: CCRF-CEM
COLO 205 = test system: COLO 205
DU-145 = test system: DU-145
EKVX = test system: EKVX
HCC 2998 = test system: HCC 2998
HCT-116 = test system: HCT-116
HCT-15 = test system: HCT-15
HL-60 = test system: HL-60
HOP-62 = test system: HOP-62
HOP-92 = test system: HOP-92
HT-29 = test system: HT-29
Hs-578T = test system: Hs-578T
IGROV-1 = test system: IGROV-1
K562 = test system: K562
KM12 = test system: KM12
LOX IMVI = test system: LOX IMVI
M14 = test system: M14
MCF7 = test system: MCF7
MDA-MB-231 = test system: MDA-MB-231
MDA-MB-435 = test system: MDA-MB-435
MDA-N = test system: MDA-N
MOLT-4 = test system: MOLT-4
Malme-3M = test system: Malme-3M
NCI-H226 = test system: NCI-H226
NCI-H23 = test system: NCI-H23
NCI-H460 = test system: NCI-H460
NCI-H522 = test system: NCI-H522
NCI/ADR-RES = test system: NCI/ADR-RES
OVCAR-3 = test system: OVCAR-3
OVCAR-4 = test system: OVCAR-4
OVCAR-5 = test system: OVCAR-5
OVCAR-8 = test system: OVCAR-8
PC-3 = test system: PC-3
RPMI-8226 = test system: RPMI-8226
RXF 393 = test system: RXF 393
SF-268 = test system: SF-268
SF-295 = test system: SF-295
SF-539 = test system: SF-539
SK-MEL-28 = test system: SK-MEL-28
SK-MEL-2 = test system: SK-MEL-2
SK-MEL-5 = test system: SK-MEL-5
SK-OV-3 = test system: SK-OV-3
SN12C = test system: SN12C
SNB-19 = test system: SNB-19
SNB-75 = test system: SNB-75
SW-620 = test system: SW-620
T47D = test system: T47D
TK-10 = test system: TK-10
U-251 = test system: U-251
UACC-257 = test system: UACC-257
UACC-62 = test system: UACC-62
UO-31 = test system: UO-31
SR = test system: SR

Measured: GI50

Cc1nc(-c2ccccc2)c(-c2ccccc2)s1
17.7 µM: HCT-15
inactive: 786-0 21.4 µM | A498 17.6 µM | A549 25.8 µM | ACHN 26.9 µM | BT-549 23.9 µM | CAKI-1 20.2 µM | CCRF-CEM 16.5 µM | COLO 205 18.3 µM | DU-145 32 µM | EKVX 22.6 µM | HCC 2998 12.7 µM | HCT-116 25.6 µM | HL-60 10 µM | HOP-62 38 µM | HOP-92 20.6 µM | HT-29 17.9 µM | Hs-578T 21.8 µM | IGROV-1 18.6 µM | K562 18.8 µM | KM12 20.4 µM | LOX IMVI 16.4 µM | M14 19.9 µM | MCF7 25.3 µM | MDA-MB-231 22.5 µM | MDA-MB-435 17.9 µM | MDA-N 11.4 µM | MOLT-4 17.6 µM | Malme-3M 21.4 µM | NCI-H226 17.9 µM | NCI-H23 28.1 µM | NCI-H460 19.1 µM | NCI-H522 18.6 µM | NCI/ADR-RES 24.2 µM | OVCAR-3 23.5 µM | OVCAR-4 19.6 µM | OVCAR-5 27.6 µM | OVCAR-8 27.1 µM | PC-3 14.2 µM | RPMI-8226 14.3 µM | RXF 393 19.4 µM | SF-268 25.6 µM | SF-295 24.8 µM | SF-539 22.6 µM | SK-MEL-28 45 µM | SK-MEL-2 16.7 µM | SK-MEL-5 14.4 µM | SK-OV-3 22.9 µM | SN12C 37.9 µM | SNB-19 31 µM | SNB-75 23.4 µM | SW-620 15.7 µM | T47D 37.8 µM | TK-10 19.7 µM | U-251 15.2 µM | UACC-257 25.1 µM | UACC-62 18 µM | UO-31 20.2 µM

O=c1onc2n1-c1ccc(Cl)cc1C(=S)N1CSCC21 (stereo unspecified)
inactive: 786-0 23.1 µM | A498 23.1 µM | A549 34.8 µM | ACHN 66.8 µM | BT-549 20.5 µM | CAKI-1 64.1 µM | CCRF-CEM 25.9 µM | COLO 205 18.4 µM | DU-145 34.2 µM | EKVX 29.6 µM | HCC 2998 19.5 µM | HCT-116 13.7 µM | HOP-62 63.1 µM | HT-29 24.5 µM | Hs-578T 22.2 µM | IGROV-1 26.5 µM | K562 25.4 µM | KM12 29.4 µM | LOX IMVI 31.5 µM | M14 11.1 µM | MCF7 28.4 µM | MDA-MB-231 19.5 µM | MDA-MB-435 9.46 µM | MDA-N 8.71 µM | MOLT-4 30.1 µM | Malme-3M 47.3 µM | NCI-H226 28.1 µM | NCI-H460 20.9 µM | NCI-H522 21.9 µM | NCI/ADR-RES 17.3 µM | OVCAR-3 38.8 µM | OVCAR-4 59.2 µM | OVCAR-5 31.3 µM | OVCAR-8 18.1 µM | PC-3 31.4 µM | RPMI-8226 31.3 µM | RXF 393 33.6 µM | SF-268 25.8 µM | SF-295 17.5 µM | SK-MEL-28 52.5 µM | SK-MEL-2 25.1 µM | SK-MEL-5 19.7 µM | SK-OV-3 19.4 µM | SN12C 29.6 µM | SNB-19 22.3 µM | SNB-75 30.4 µM | SR 15.9 µM | SW-620 20.7 µM | T47D 35.7 µM | TK-10 70.5 µM | U-251 18.2 µM | UACC-257 > 100 µM | UACC-62 67.8 µM | UO-31 59 µM
26.6 µM: HCT-15

COC(=O)C1=C(C)NC(C)=C(C(=O)OC)C1c1ccc(/[N+]([O-])=C/c2ccccc2)cc1
42.5 µM: HCT-15
inactive: 786-0 17.3 µM | A549 96.6 µM | ACHN 17.4 µM | BT-549 18.8 µM | CAKI-1 18.7 µM | CCRF-CEM 17 µM | COLO 205 19 µM | DU-145 > 100 µM | EKVX 71.6 µM | HCC 2998 > 100 µM | HCT-116 16.4 µM | HL-60 15.1 µM | HOP-62 83.2 µM | HOP-92 20.8 µM | HT-29 48.9 µM | Hs-578T 41.3 µM | IGROV-1 > 100 µM | K562 23.6 µM | KM12 > 100 µM | LOX IMVI 45 µM | M14 18.1 µM | MCF7 16.7 µM | MDA-MB-231 41.1 µM | MDA-MB-435 30.4 µM | MDA-N 34.4 µM | MOLT-4 24.1 µM | Malme-3M 17.3 µM | NCI-H226 62.4 µM | NCI-H23 42.5 µM | NCI-H460 66.8 µM | NCI-H522 14.6 µM | NCI/ADR-RES 66.5 µM | OVCAR-3 18.9 µM | OVCAR-4 17.3 µM | OVCAR-5 > 100 µM | OVCAR-8 19.7 µM | PC-3 64.1 µM | RPMI-8226 66.1 µM | RXF 393 19.7 µM | SF-268 > 100 µM | SF-295 46.9 µM | SF-539 > 100 µM | SK-MEL-28 18.7 µM | SK-MEL-2 > 100 µM | SK-MEL-5 > 100 µM | SK-OV-3 > 100 µM | SN12C 51.5 µM | SNB-19 94.2 µM | SNB-75 34.9 µM | SR 24.1 µM | SW-620 20 µM | T47D 19.8 µM | TK-10 92.9 µM | U-251 > 100 µM | UACC-257 29.6 µM | UACC-62 37.6 µM | UO-31 37.1 µM

Source: ChEMBL document CHEMBL1201862, “PubChem BioAssay data set” (2004)
